For experiment [1], the system named is Diet-induced obese mice. Briefly: Diet-induced obese mice study, 14 days dosing. In kind it is in vivo. The following applies: once daily for 14 days; BC1618 8 or 40 mg/kg/d. The protocol: FIG. 12. Diet-induced obese mice were fed a high-fat diet for 19 weeks and then injected with vehicle or drug once daily for 14 days. Daily body weights (in grams) of the mice are shown.
Diet-induced obese mice arrived from Jackson Labs and recovered two weeks in satellite housing before study. Mice were 25 weeks old and fed a high-fat diet for 19 weeks at the time of study. Body weight, fat and lean mass were measured and mice were grouped in order to match body weights at ˜46.5 g average per group prior to study. Following the acute dosing trial, mice were injected with vehicle or drug 1× daily between noon and 2 pm for 14 days (BC1618-L (low dose)=8 mg/kg/d, BC1618-H (high dose)=40 mg/kg/d). Body weight was recorded daily (FIGS. 12-15). FIG. 12 and FIG. 13 show body weight in grams and FIG. 14 and FIG. 15 show body weight as a percentage of body weight on day 0 (DO).
FIGS. 16-19 show the change (A) in body weight (BW) from day 0 to day 14 expressed as change in grams (FIG. 16 and FIG. 17) or as percent change from day 0 (FIG. 18 and FIG. 19).
Body composition was measured at DO in the body weight matched animals and again at day 14 (D14). Data in FIGS. 20-23 represent the change in fat mass from DO to D14 expressed as grams (FIG. 20 and FIG. 21) or as percent change (FIG. 22 and FIG. 23).
Data in FIGS. 24-27 represent the change in lean mass from DO to D14 expressed as grams (FIG. 24 and FIG. 25) and as percent change (FIG. 26 and FIG. 27). Overall there appears to be a modest effect of vehicle and drug to reduce lean mass over 14 days, but no differences between groups. Changes in BW over 14 days therefore reflect changes in fat mass and not lean mass.

Experiment [2] has as its system Diet-induced obese mice. Briefly: Hyperinsulinemic euglycemic clamp study. In kind it is in vivo. The following applies: BC1618 20 mg/kg twice. The protocol:
FIG. 30. Diet-induced obese mice were dosed 1× with vehicle or BC1618 (20 mg/kg) prior to overnight fast, followed by a 1× (20 mg/kg) morning dose prior to hyperinsulinemic euglycemic clamp. Body weight measurements are shown.
FIG. 31. From the same study as in FIG. 30, fasting plasma glucose and glucose infusion rate values are shown.
FIG. 32. From the same study as in FIG. 30, glucose infusion rate values are shown.
Diet-induced obese mice were dosed 1× with vehicle or BC1618 (20 mg/kg) prior to overnight fast, followed by a 1× (20 mg/kg) morning dose prior to hyperinsulinemic euglycemic clamp. […] Plasma glucose levels were matched during the clamp (FIG. 31, upper portion). The glucose infusion rate (GIR) required to maintain euglycemia in the 1618 treated mice was approximately 2-fold greater than VEH treated mice (FIG. 31, lower portion and average over last 40 min in FIG. 32, P<0.001), indicating improved whole-body insulin sensitivity.

The values below come from patent publication US11673853B2, “Small molecule AMPK activators” (University of Pittsburgh—Of the Commonwealth System of …, priority 2016, dated 2023).

In the case of `OC(COc1ccc(C(F)(F)F)cc1)CN(Cc1ccccc1)Cc1ccccc1` (stereo not drawn) [Compound 23], in the experiment on Diet-induced obese mice [1], the “body weight loss (daily body weight)” value was “effect of AICAR and BC1618 on body weight loss”; the “change in body weight from day 0 to day 14” value is “an effect due to AICAR or BC1618”; the “change in fat mass from D0 to D14” value is given as “apparent additive effect”. In addition, the “body weight prior to clamp” value in the experiment with Diet-induced obese mice [2] was “no difference in body weight”. In addition, in the experiment on Diet-induced obese mice [2] (P<0.001), the “glucose infusion rate (GIR) required to maintain euglycemia, relative to VEH treated mice” value is reported as “approximately 2 fold”. Besides, the fasting plasma glucose in the experiment on Diet-induced obese mice [2] (before clamp, vehicle 111±3, P=0.12) was 100 ± 6 mg/dL.
